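Results reflect a 48-hour exposure of cells in 96-well plates to compound at five concentrations. TGI denotes the concentration required for complete inhibition of growth.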
Columns and labels:
Experiment in all cases: NCI-60 cell line screen, 48 h
[1] = tested on: DLD-1 colon
[2] = tested on: DMS 114 small cell lung
[3] = tested on: EKVX NSCLC
[4] = tested on: LXFL 529 NSCLC
[5] = tested on: M19-MEL melanoma
[6] = tested on: RPMI-8226 leukemia
[7] = tested on: SF-539 CNS
[8] = tested on: SK-MEL-2 melanoma
[9] = tested on: SNB-75 CNS
[10] = tested on: SNB-78 CNS
[11] = tested on: XF 498 CNS

Row | SMILES | TGI [1] [µM] | TGI [2] [µM] | TGI [3] [µM] | TGI [4] [µM] | TGI [5] [µM] | TGI [6] [µM] | TGI [7] [µM] | TGI [8] [µM] | TGI [9] [µM] | TGI [10] [µM] | TGI [11] [µM]
1 | COc1ccc(OC)c(-c2cc(=O)c3cc4c(cc3[nH]2)OCO4)c1 | > 100 | 13.9 | > 100 | 49.6 | > 100 | > 46.6 | 16.2 | > 51.3 | > 38.1 | > 100 | 35.9
2 | O=C1NC2OC(CO)C(O)C(O)C2O1 (configuration not stated) | > 100 | > 100 | > 100 | > 100 | > 100 |  | > 100 | > 100 | > 100 | > 100 | 
3 | CCCCc1c2c(nc3c1CCCC3=O)CCCC2 |  | > 100 | > 100 | > 100 | > 100 | > 100 | > 100 |  |  |  | > 100
4 | O=C1C(=Cc2ccc([N+](=O)[O-])o2)C(=O)N(CCc2ccccc2)S(=O)(=O)N1CCc1ccccc1 | 34.1 |  | > 100 | 30.6 | 31.7 | > 100 | > 100 | 35.2 | > 100 | 94.9 | 34.9
5 | COc1ccc(/C=C(\C2=NC(=O)CS2)c2nc3ccccc3[nH]2)cc1 | > 100 | > 100 | > 100 | > 100 | > 100 | > 100 | 41.9 | 62.9 | 71.6 | > 100 | 81.5
6 | COc1cc(CC(=O)c2cc3c(cc2-c2ccccc2)OCO3)cc(OC)c1OC | > 100 | > 100 | > 100 | > 100 |  |  | > 100 | > 100 | 35.8 | > 100 | 77.3
7 | CC(=O)Nc1ccc(C(=O)n2[nH]c(C)c(/C=C3\C(=O)C=Cc4ccccc43)c2=O)cc1 | > 100 | > 100 | > 100 |  | > 100 | > 100 | > 100 | 95.3 | > 100 | > 100 | > 100

From PubChem BioAssay (NCI)
